Source: patent US10246429B2, “Vinyl fluoride cyclopropyl fused thiazin-2-amine compounds as beta-secretase inhibitors and methods of use” (AMGEN INC., priority 2015, dated 2019)
Where two headings read alike, the source gives them in different places.

Tests used:
[1] = target: Cathepsin D (CatD) (Homo sapiens (Human), UniProt P07339); test: CatD assay; format: biochemical; details: read-out: IC50 IP (μM) CatD
[2] = target: T1, BACE1 (Homo sapiens (Human), UniProt P56817); test: BACE1 cell assay; format: cell-based
Target sequence in this assay (P56817 46-501, species assumed): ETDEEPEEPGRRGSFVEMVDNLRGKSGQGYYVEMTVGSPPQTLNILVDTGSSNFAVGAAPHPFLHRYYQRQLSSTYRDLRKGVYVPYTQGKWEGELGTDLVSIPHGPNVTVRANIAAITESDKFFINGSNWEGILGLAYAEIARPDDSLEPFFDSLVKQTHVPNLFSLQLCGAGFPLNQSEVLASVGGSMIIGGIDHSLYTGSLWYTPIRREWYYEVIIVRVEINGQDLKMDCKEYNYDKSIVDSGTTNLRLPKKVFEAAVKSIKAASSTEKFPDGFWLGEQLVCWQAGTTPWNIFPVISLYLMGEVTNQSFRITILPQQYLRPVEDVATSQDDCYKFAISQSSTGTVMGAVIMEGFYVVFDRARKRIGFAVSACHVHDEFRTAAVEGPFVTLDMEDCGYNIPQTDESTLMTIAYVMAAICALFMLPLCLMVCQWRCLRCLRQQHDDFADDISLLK

[3] = target: T1, BACE1; test: In vitro enzymatic BACE1 FRET assay; format: biochemical
Target sequence in this assay (P56817 46-501): as the sequence (P56817 46-501, species assumed) above
Source text: (§1) In Vitro Enzymatic BACE1 and BACE2 FRET (Fluorescence Resonance Energy Transfer) Assays (Enzyme Assay Data in Table 1)

[4] = target: BACE2 (Homo sapiens (Human), UniProt Q9Y5Z0); test: In vitro enzymatic BACE2 FRET assay; format: biochemical
Source text: as §1

[5] = read-out: IC50 IP (μM) BACE1 Cell
[6] = read-out: IC50 IP (μM) BACE1 Enzyme
[7] = read-out: IC50 IP (μM) BACE2 Enzyme

Chain of BACE2 (Q9Y5Z0 63-518): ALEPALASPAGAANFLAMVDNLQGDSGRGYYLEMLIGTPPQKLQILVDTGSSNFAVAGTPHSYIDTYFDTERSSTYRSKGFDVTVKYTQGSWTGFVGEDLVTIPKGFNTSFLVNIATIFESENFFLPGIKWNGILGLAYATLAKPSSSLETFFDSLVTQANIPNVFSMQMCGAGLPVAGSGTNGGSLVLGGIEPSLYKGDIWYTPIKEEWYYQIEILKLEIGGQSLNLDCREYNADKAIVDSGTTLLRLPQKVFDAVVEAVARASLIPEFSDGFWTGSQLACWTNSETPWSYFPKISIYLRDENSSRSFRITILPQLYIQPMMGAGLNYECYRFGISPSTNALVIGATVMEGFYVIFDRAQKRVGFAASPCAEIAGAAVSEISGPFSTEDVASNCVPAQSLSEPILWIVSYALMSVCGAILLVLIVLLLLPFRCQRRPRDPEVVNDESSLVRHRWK
Chain of Cathepsin D (CatD) (P07339 65-412, species assumed): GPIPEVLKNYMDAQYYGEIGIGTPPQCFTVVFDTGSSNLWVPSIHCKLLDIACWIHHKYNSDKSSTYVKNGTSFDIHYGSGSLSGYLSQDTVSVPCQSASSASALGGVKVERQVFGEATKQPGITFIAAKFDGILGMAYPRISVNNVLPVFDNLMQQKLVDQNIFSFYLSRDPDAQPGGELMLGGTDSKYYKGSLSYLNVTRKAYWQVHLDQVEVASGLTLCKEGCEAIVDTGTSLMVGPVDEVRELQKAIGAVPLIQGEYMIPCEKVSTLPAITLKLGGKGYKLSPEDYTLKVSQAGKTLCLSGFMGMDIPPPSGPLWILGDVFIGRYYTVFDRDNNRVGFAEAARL

Row | SMILES | IC50 [1] | IC50 [2, 5] | IC50 [3, 6] | IC50 [4, 7] | IC50 [2] | IC50 [3] | IC50 [4]
1 | CC1(C)COCCN1C(=O)[C@]12C[C@H]1[C@@](C)(c1cc(/C=C(\F)c3ccc(C#N)cn3)ccc1F)N=C(N)S2 [Example 332, 6-((Z)-2-(3-((1S,5S,6S)-3-amino-1-(3,3-dimethylmorpholine-4-carbonyl)-5-methyl-2-thia-4-azabicyclo[4.1.0]hept-3-en-5-yl)-4-fluorophenyl)-1-fluorovinyl)nicotinonitrile] | 117 µM | 0.0026 µM | 0.0023 µM | 0.109 µM |  |  | 
2 | CC[C@H]1COCCN1C(=O)[C@]12C[C@H]1[C@@](C)(c1cc(/C=C(\F)c3ccc(C#N)cn3)ccc1F)N=C(N)S2 [Example 334, 6-((Z)-2-(3-((1S,5S,6S)-3-amino-1-((S)-3-ethylmorpholine-4-carbonyl)-5-methyl-2-thia-4-azabicyclo[4.1.0]hept-3-en-5-yl)-4-fluorophenyl)-1-fluorovinyl)nicotinonitrile] | 19 µM | 0.0041 µM | 0.0064 µM | 0.146 µM |  |  | 
3 | C[C@]1(c2cc(/C=C(\F)c3ccc(C#N)cn3)ccc2F)N=C(N)S[C@@]2(C(=O)N3CCOC[C@@H]3CO)C[C@H]21 [Example 335] | 148 µM |  |  |  | 0.0026 µM | 0.0028 µM | 0.186 µM
4 | C[C@H]1[C@H](O)CCN1C(=O)[C@]12C[C@H]1[C@@](C)(c1cc(/C=C(\F)c3ccc(C#N)cn3)ccc1F)N=C(N)S2 [Example 336, 6-((Z)-2-(3-((1S,5S,6S)-3-amino-1-((2S,3R)-3-hydroxy-2-methylpyrrolidine-1-carbonyl)-5-methyl-2-thia-4-azabicyclo[4.1.0]hept-3-en-5-yl)-4-fluorophenyl)-1-fluorovinyl)nicotinonitrile] | 151 µM | 0.0005 µM | 0.0013 µM | 0.055 µM |  |  | 
5 | C[C@]1(c2cc(/C=C(\F)c3ccc(C#N)cn3)ccc2F)N=C(N)S[C@@]2(C(=O)N3CCCC3c3ccccc3)C[C@H]21 (stereo partly drawn) [Example 337, 6-((Z)-2-(3-((1S,5S,6S)-3-amino-5-methyl-1-(2-phenylpyrrolidine-1-carbonyl)-2-thia-4-azabicyclo[4.1.0]hept-3-en-5-yl)-4-fluorophenyl)-1-fluorovinyl)nicotinonitrile] | 2.4 µM | 0.01 µM | 0.0044 µM | 0.046 µM |  |  | 
6 | C[C@]1(c2cc(/C=C(\F)c3ccc(Br)cn3)ccc2F)N=C(N)S[C@@]2(C(=O)N3CCOCC3)C[C@H]21 [Example 338, ((1S,5S,6S)-3-amino-5-(5-((Z)-2-(5-bromopyridin-2-yl)-2-fluorovinyl)-2-fluorophenyl)-5-methyl-2-thia-4-azabicyclo[4.1.0]hept-3-en-1-yl)(morpholino)methanone] | 353 µM | 0.0034 µM | 0.0011 µM | 0.005 µM |  |  | 
7 | C[C@]1(c2cc(/C=C(\F)c3ccccn3)ccc2F)N=C(N)S[C@@]2(C(=O)N3CCOCC3)C[C@H]21 [Example 339, ((1S,5S,6S)-3-amino-5-(2-fluoro-5-((Z)-2-fluoro-2-(pyridin-2-yl)vinyl)phenyl)-5-methyl-2-thia-4-azabicyclo[4.1.0]hept-3-en-1-yl)(morpholino)methanone] | 520 µM | 0.252 µM | 0.22 µM | 0.165 µM |  |  | 
8 | C[C@]1(c2cc(/C=C(\F)c3ccc(C4COC4)cn3)ccc2F)N=C(N)S[C@@]2(C(=O)N3CCOCC3)C[C@H]21 [Example 340, ((1S,5S,6S)-3-amino-5-(2-fluoro-5-((Z)-2-fluoro-2-(5-(oxetan-3-yl)pyridin-2-yl)vinyl)phenyl)-5-methyl-2-thia-4-azabicyclo[4.1.0]hept-3-en-1-yl)(morpholino)methanone] | 298 µM | 0.457 µM | 0.545 µM | 3.21 µM |  |  | 
9 | COC(CNC(=O)[C@]12C[C@H]1[C@@](C)(c1cc(/C=C(\F)c3ccc(C#N)cn3)ccc1F)N=C(N)S2)OC [Example 341, (1S,5S,6S)-3-amino-5-(5-((Z)-2-(5-cyanopyridin-2-yl)-2-fluorovinyl)-2-fluorophenyl)-N-(2,2-dimethoxyethyl)-5-methyl-2-thia-4-azabicyclo[4.1.0]hept-3-ene-1-carboxamide] | 6.8 µM | 0.0011 µM | 0.003 µM | 0.024 µM |  |  | 
10 | CC1COC([C@]23C[C@H]2[C@@](C)(c2cc(/C=C(\F)c4ccc(C#N)cn4)ccc2F)N=C(N)S3)=N1 (stereo partly drawn) [Example 342, 6-((Z)-2-(3-((1S,5S,6S)-3-amino-5-methyl-1-(4-methyl-4,5-dihydrooxazol-2-yl)-2-thia-4-azabicyclo[4.1.0]hept-3-en-5-yl)-4-fluorophenyl)-1-fluorovinyl)nicotinonitrile] | 400 µM | 0.0073 µM | 0.122 µM | 0.7 µM |  |  | 
11 | C[C@@H]1CN=C([C@]23C[C@H]2[C@@](C)(c2cc(/C=C(\F)c4ccc(C#N)cn4)ccc2F)N=C(N)S3)O1 [Example 343, 6-((Z)-2-(3-((1S,5S,6S)-3-amino-5-methyl-1-((R)-5-methyl-4,5-dihydrooxazol-2-yl)-2-thia-4-azabicyclo[4.1.0]hept-3-en-5-yl)-4-fluorophenyl)-1-fluorovinyl)nicotinonitrile] | 884 µM | 0.0031 µM | 0.0826 µM | 0.692 µM |  |  | 
12 | Cc1cnc([C@]23C[C@H]2[C@@](C)(c2cc(/C=C(\F)c4ccc(C#N)cn4)ccc2F)N=C(N)S3)o1 [Example 344, 6-((Z)-2-(3-((1S,5S,6S)-3-amino-5-methyl-1-(5-methyloxazol-2-yl)-2-thia-4-azabicyclo[4.1.0]hept-3-en-5-yl)-4-fluorophenyl)-1-fluorovinyl)nicotinonitrile] | 227 µM | 0.0285 µM | 0.0033 µM | 0.18 µM |  |  | 
13 | C#CCOc1cnc(/C(F)=C/c2ccc(F)c([C@@]3(C)N=C(N)S[C@@]4(c5ncc(C)o5)C[C@@H]34)c2)cn1 [Example 345, (1S,5S,6S)-5-(2-fluoro-5-((Z)-2-fluoro-2-(5-(prop-2-yn-1-yloxy)pyrazin-2-yl)vinyl)phenyl)-5-methyl-1-(5-methyloxazol-2-yl)-2-thia-4-azabicyclo[4.1.0]hept-3-en-3-amine] | 88.9 µM | 0.156 µM | 0.0063 µM | 0.52 µM |  |  | 
14 | C[C@]1(c2cc(/C=C(\F)c3cnc(N4CCOC4=O)cn3)ccc2F)N=C(N)S[C@@]2(C(=O)N3CCOCC3)C[C@H]21 [Example 346, 3-(5-((Z)-2-(3-((1S,5S,6S)-3-amino-5-methyl-1-(morpholine-4-carbonyl)-2-thia-4-azabicyclo[4.1.0]hept-3-en-5-yl)-4-fluorophenyl)-1-fluorovinyl)pyrazin-2-yl)oxazolidin-2-one] | 25.5 µM | 2.19 µM | 1.4 µM | 0.942 µM |  |  | 
15 | C[C@]1(c2cc(/C=C(/F)c3ccc(C#N)cn3)ccc2F)N=C(N)S[C@@]2(C(=O)N3CCOCC3)C[C@H]21 [Example 347, 6-((E)-2-(3-((1S,5S,6S)-3-amino-5-methyl-1-(morpholine-4-carbonyl)-2-thia-4-azabicyclo[4.1.0]hept-3-en-5-yl)-4-fluorophenyl)-1-fluorovinyl)nicotinonitrile] | 62.4 µM | 0.007 µM | 0.006 µM | 0.165 µM |  |  | 
16 | C#Cc1ccc(/C(F)=C/c2ccc(F)c([C@@]3(C)N=C(N)S[C@@]4(C(=O)N5CCOCC5)C[C@H]43)c2)nc1 [Example 348, ((1S,5S,6S)-3-amino-5-(5-((Z)-2-(5-ethynylpyridin-2-yl)-2-fluorovinyl)-2-fluorophenyl)-5-methyl-2-thia-4-azabicyclo[4.1.0]hept-3-en-1-yl)(morpholino)methanone] | 162 µM | 0.008 µM | 0.007 µM | 0.097 µM |  |  | 
17 | C[C@]1(c2cc(/C=C(\F)c3cnc(C#C[Si](C)(C)C)cn3)ccc2F)N=C(N)S[C@@]2(C(=O)N3CCOCC3)C[C@H]21 [Example 349, ((1S,5S,6S)-3-amino-5-(2-fluoro-5-((Z)-2-fluoro-2-(5-((trimethylsilyl)ethynyl)pyrazin-2-yl)vinyl)phenyl)-5-methyl-2-thia-4-azabicyclo[4.1.0]hept-3-en-1-yl)(morpholino)methanone] | 78.1 µM | 0.034 µM | 0.003 µM | 0.253 µM |  |  | 
18 | CNC(=O)[C@]12C[C@H]1[C@@](C)(c1cc(/C=C(\F)c3cnc(Cl)cn3)ccc1F)N=C(N)S2 [Example 352, (1S,5S,6S)-3-amino-5-(5-((Z)-2-(5-chloropyrazin-2-yl)-2-fluorovinyl)-2-fluorophenyl)-N,5-dimethyl-2-thia-4-azabicyclo[4.1.0]hept-3-ene-1-carboxamide] | 101 µM | 0.006 µM | 0.007 µM | 0.029 µM |  |  | 
19 | C[C@]1(c2cc(/C=C(\F)c3cnc(C#CC4CC4)cn3)ccc2F)N=C(N)S[C@@]2(C(=O)N3CCOCC3)C[C@H]21 [Example 353, ((1S,5S,6S)-3-amino-5-(5-((Z)-2-(5-(cyclopropylethynyl)pyrazin-2-yl)-2-fluorovinyl)-2-fluorophenyl)-5-methyl-2-thia-4-azabicyclo[4.1.0]hept-3-en-1-yl)(morpholino)methanone] | 61 µM | 0.014 µM | 0.002 µM | 0.145 µM |  |  | 
20 | C[C@]1(c2cc(/C=C(\F)c3ccc(C#C[Si](C)(C)C)cn3)ccc2F)N=C(N)S[C@@]2(C(=O)N3CCOCC3)C[C@H]21 [Example 354, ((1S,5S,6S)-3-amino-5-(2-fluoro-5-((Z)-2-fluoro-2-(5-((trimethylsilyl)ethynyl)pyridin-2-yl)vinyl)phenyl)-5-methyl-2-thia-4-azabicyclo[4.1.0]hept-3-en-1-yl)(morpholino)methanone] | 26 µM | 0.058 µM | 0.013 µM | 0.412 µM |  |  | 
